Results from patent US20240287046A1, “COMPOUNDS AND RADIOLIGANDS FOR TARGETING NEUROTENSIN RECEPTOR AND USES THEREOF” (Full-Life Technologies HK Limited, priority 2022, published 2024).

Columns and labels:
HT-29 tumor-bearing mice = test: Biodistribution of radionuclide labeled complexes in HT-29 tumor-bearing mice; type: in vivo, BALB/c nude mice; conditions: Tumor
Method: The BALB/c nude mice (Charles River, Beijing) were utilized to establish the xenografted model for biodistribution study. All animal care and experimental procedure were performed by following the animal protocols approved by the ethics committee of China Institute of Radiation Protection.
Briefly, each mouse was inoculated with approximately 4×10^6 ASPC-1 cells (human pancreatic cancer cell line) or HT-29 cells (human colorectal adenocarcinoma cell line) expressing human NTSR-1 by subcutaneous injection at rear flank. After inoculation, the xenografted tumors were allowed to grow for ˜2-4 weeks till the tumor weight reached to about 0.05 to 0.50 g (0.20 g in average).
Biodistribution studies were performed by administrating the radionuclide labeled test compound at a dose of ˜30-50 μCi (100 μL in 0.9% NaCl, ˜1.11-1.85 MBq, with specific activity 30-250 μCi/nmol) to each animal through tail vein injection.
At different time points after the administration, the mice treated with each compound were euthanized. The tissues and organs of the animals in each group were collected, excised, weighed, and analyzed in a PerkinElmer 2480 WIZARD2γ counter, and the percent injected dose (% ID) and % ID/g of each organ or tissue were calculated.

[1] = test system: ASPC-1 tumor-bearing mice; test: Biodistribution of radionuclide labeled complexes in ASPC-1 tumor-bearing mice; type: in vivo, BALB/c nude mice
Procedure, shortened: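 Radiolabeled compound (~30-50 μCi, ~1.11-1.85 MBq, specific activity 30-250 μCi/nmol) was injected i.v. via tail vein into nude mice carrying 0.05-0.50 g subcutaneous NTSR-1-positive human tumors. At set times, tissues were collected, weighed and γ-counted; % ID and % ID/g were calculated.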

[2] = Stability of ^177Lu labeled complexes in PBS by radio-HPLC; type: physicochemical; conditions: incubation at room temperature over 120 h in PBS (pH 7.4) or PBS with 3 mg/mL ascorbic acid
Method: Exemplary compounds of the present application were labeled with ^177Lu to evaluate stability of the compounds after radionuclide labeling. Briefly, 4 μL exemplary compounds in DMSO stock solution (2000 μM) and 2 mCi ^177Lu (ITM Isotope Technologies Munich) were mixed together in 0.5 M NaOAc buffer (20-50 μL, pH=4.5), followed by incubation at 95° C. for 15 min. Then the labeled complexes were subject to radio-TLC analysis (a polyamide film using methanol and 1M ammonium acetate as the mobile phase, v/v: 4:1, detected by Mini Scan) and radio-HPLC analysis (column: Shim-pack GIST 5 μm 4.6*150 mm; buffer A: 0.2% formic acid H2O; buffer B: 0.1% formic acid acetonitrile; flow rate: 1 mL/min; gradient: 0-5 min: 10% B to 95% B; then 5-8 min: 95% B).
After radionuclide labeling, the complexes were diluted to ˜1.5 mCi/0.30 mL by PBS (pH 7.4) or PBS with 3 mg/mL ascorbic acid (pH 7.4). Then the diluted samples were incubated at room temperature, followed by stability analysis via radio-HPLC at 0, 4, 24, 48, 72, 120 h of incubation, respectively. FIG. 1 illustrates stability analysis of a representative complex ^177Lu—I-7.

[3] = test system: ASPC-1 tumor-bearing mice; test: SPECT/CT imaging of ^177Lu-labeled complexes; type: in vivo; conditions: over 72 hours
Method: ASPC-1 tumor-bearing mice were IV-injected with about 120 μCi of ^177Lu-labeled complexes, then anesthetized under 2% isoflurane/oxygen gas and placed on the scanner. SPECT/CT images were acquired in three bed positions for 30 min using a MILabs SPECT scanner. Whole-body SPECT images were acquired at 1 h, 4 h, 24 and 72 h after injecting the radiotracers.

% ID/g (4 h) Tumor (HT-29 tumor-bearing mice; 4 h): 16.52 ± 12.39 % ID/g
% ID/g (24 h) Tumor (HT-29 tumor-bearing mice; 24 h): 20.35 ± 2.62 % ID/g
% ID/g (72 h) Tumor (HT-29 tumor-bearing mice; 72 h): 9.3 ± 7.53 % ID/g
% ID/g (120 h) Tumor (HT-29 tumor-bearing mice; 120 h): 6.42 ± 3.46 % ID/g
tumor AUC over 72 hours compared to ^177Lu—C2 [1]: significantly higher tumor AUC
% ID/g (1 h) Blood ([1]; Blood, 1 h): 9.79 ± 1.66 % ID/g
% ID/g (4 h) Blood ([1]; Blood, 4 h): 1.8 ± 0.62 % ID/g
% ID/g (24 h) Blood ([1]; Blood, 24 h): 0.07 ± 0.01 % ID/g
% ID/g (72 h) Blood ([1]; Blood, 72 h): 0.01 ± 0 % ID/g
% ID/g (1 h) Femur ([1]; Femur, 1 h): 1.65 ± 0.23 % ID/g
% ID/g (4 h) Femur ([1]; Femur, 4 h): 0.49 ± 0.25 % ID/g
% ID/g (24 h) Femur ([1]; Femur, 24 h): 0.12 ± 0.04 % ID/g
% ID/g (72 h) Femur ([1]; Femur, 72 h): 0.06 ± 0.03 % ID/g
% ID/g (1 h) Heart ([1]; Heart, 1 h): 3.47 ± 0.56 % ID/g
% ID/g (4 h) Heart ([1]; Heart, 4 h): 0.58 ± 0.32 % ID/g
% ID/g (24 h) Heart ([1]; Heart, 24 h): 0.29 ± 0.14 % ID/g
% ID/g (72 h) Heart ([1]; Heart, 72 h): 0.08 ± 0.01 % ID/g
% ID/g (1 h) Intestine ([1]; Intestine, 1 h): 2.53 ± 0.58 % ID/g
% ID/g (4 h) Intestine ([1]; Intestine, 4 h): 1.69 ± 0.45 % ID/g
% ID/g (24 h) Intestine ([1]; Intestine, 24 h): 0.62 ± 0.04 % ID/g
% ID/g (72 h) Intestine ([1]; Intestine, 72 h): 0.19 ± 0.07 % ID/g
% ID/g (1 h) Kidney ([1]; Kidney, 1 h): 2.85 ± 0.45 % ID/g
% ID/g (4 h) Kidney ([1]; Kidney, 4 h): 2.05 ± 0.48 % ID/g
% ID/g (24 h) Kidney ([1]; Kidney, 24 h): 1.2 ± 0.17 % ID/g
% ID/g (72 h) Kidney ([1]; Kidney, 72 h): 0.48 ± 0.12 % ID/g
% ID/g (1 h) Liver ([1]; Liver, 1 h): 3.93 ± 0.43 % ID/g
% ID/g (4 h) Liver ([1]; Liver, 4 h): 1.88 ± 1.00 % ID/g
% ID/g (24 h) Liver ([1]; Liver, 24 h): 0.84 ± 0.09 % ID/g
% ID/g (72 h) Liver ([1]; Liver, 72 h): 0.23 ± 0.01 % ID/g
% ID/g (1 h) Lung ([1]; Lung, 1 h): 3.12 ± 1.25 % ID/g
% ID/g (4 h) Lung ([1]; Lung, 4 h): 1.1 ± 0.49 % ID/g
% ID/g (24 h) Lung ([1]; Lung, 24 h): 0.43 ± 0.14 % ID/g
% ID/g (72 h) Lung ([1]; Lung, 72 h): 0.13 ± 0.1 % ID/g
% ID/g (1 h) Muscle ([1]; Muscle, 1 h): 1.1 ± 0.3 % ID/g
% ID/g (4 h) Muscle ([1]; Muscle, 4 h): 0.27 ± 0.2 % ID/g
% ID/g (24 h) Muscle ([1]; Muscle, 24 h): 0.34 ± 0.3 % ID/g
% ID/g (72 h) Muscle ([1]; Muscle, 72 h): 0.011 ± 0.01 % ID/g
% ID/g (1 h) Pancreas ([1]; Pancreas, 1 h): 0.67 ± 0.28 % ID/g
% ID/g (4 h) Pancreas ([1]; Pancreas, 4 h): 0.24 ± 0.22 % ID/g
% ID/g (24 h) Pancreas ([1]; Pancreas, 24 h): 0.29 ± 0.21 % ID/g
% ID/g (72 h) Pancreas ([1]; Pancreas, 72 h): 0.02 ± 0.01 % ID/g
% ID/g (1 h) Spleen ([1]; Spleen, 1 h): 0.63 ± 0.19 % ID/g
% ID/g (4 h) Spleen ([1]; Spleen, 4 h): 0.58 ± 0.15 % ID/g
% ID/g (24 h) Spleen ([1]; Spleen, 24 h): 0.23 ± 0.11 % ID/g
% ID/g (72 h) Spleen ([1]; Spleen, 72 h): 0.06 ± 0.01 % ID/g
% ID/g (1 h) Stomach ([1]; Stomach, 1 h): 1.01 ± 0.82 % ID/g
% ID/g (4 h) Stomach ([1]; Stomach, 4 h): 0.58 ± 0.59 % ID/g
% ID/g (24 h) Stomach ([1]; Stomach, 24 h): 0.21 ± 0.08 % ID/g
% ID/g (72 h) Stomach ([1]; Stomach, 72 h): 0.04 ± 0.01 % ID/g
% ID/g (1 h) Tumor ([1]; Tumor, 1 h): 15.27 ± 8.72 % ID/g
% ID/g (4 h) Tumor ([1]; Tumor, 4 h): 19.97 ± 10.42 % ID/g
% ID/g (24 h) Tumor ([1]; Tumor, 24 h): 22.83 ± 1.14 % ID/g
% ID/g (72 h) Tumor ([1]; Tumor, 72 h): 18.07 ± 0.98 % ID/g
ratio of tumor AUC verse normal organ AUC ([1]; compared to ^177Lu—C2): significantly improved
clearance from other organs or tissues (SPECT/CT) [3]: rapid clearance
retention in tumors (SPECT/CT) [3]: sustained retention in tumors
Compound: COc1cccc(OC)c1-c1cc(C(=O)NC2(C(=O)O)C3CC4CC(C3)CC2C4)nn1-c1ccc(OCCCN(C)CCCN(C)C(=O)CN2CCN(CC(=O)[O-])CCN(CC(=O)[O-])CCN(CC(=O)[O-])CC2)cc1C(C)C.[177Lu+3] (stereo not drawn) [^177Lu-I-7]
stability of the labeled complex [2]: remained stable and no significant degradation was detected
